Test: Non-human primate combination therapy: PLX3397, CD20 CAR T cells and cyclophosphamide preconditioning
Type: in vivo
Details: PLX3397 40 mg/kg twice daily from 30 days before to 21 days after cells; Rhesus macaques
Description: Animal subjects of the non-human primate (NHP), Macaca mulatta, which in aspects closely recapitulates the human immune system are administered cell therapy (T cells expressing a CAR targeting CD20), following administration of an agent to ameliorate toxicity. Thirty days prior to the initiation of cell therapy, T cells are isolated from peripheral blood of Rhesus macaques (n=3) and engineered via transduction with a viral vector encoding a CD20 chimeric antigen receptor (CAR), which is a tumor-associated or tumor-specific antigen, and optionally a detectable marker, such as GFP. […]
After preconditioning treatment, subjects receive a first dose of CAR-expressing cells by infusion that is less than or equal to about 1×10^7 cells/kg body weight at day 0. […] Optionally, at seven days after the administration of the of cells, the CAR-expressing cells are detected by flow cytometry and quantitative polymerase chain reaction (qPCR) to measure in vivo proliferation and persistence of the administered cells and B cell aplasia. […] Recipient animals are monitored for clinical signs and symptoms of one or more toxic outcomes or toxicities such as CRS and neurotoxicity, and data are collected longitudinally to determine CAR T cell expansion and persistence, B cell aplasia, as well as clinical labs of CRS and cytokine levels. […]

FC(F)(F)c1ccc(CNc2ccc(Cc3c[nH]c4ncc(Cl)cc34)cn2)cn1 [PLX3397, 5-((5-chloro-1H-pyrrolo[2,3-b]pyridin-3-yl)methyl)-N-((6-(trifluoromethyl)pyridin-3-yl)methyl)pyridin-2-amine]
symptoms of toxicity (CRS, neurotoxicity) after CAR T cell therapy: reduced or prevented

— patent US20190292246A1, “COMBINATION THERAPY OF A CELL BASED THERAPY AND A MICROGLIA IMHIBITOR” (JUNO THERAPEUTICS, INC., priority 2016, published 2019)
